# In patent US12594283B2 (The Medical College of Wisconsin, Inc., priority 2019, dated 2026):
# Like-named read-outs stand apart in the source and are kept apart here.
# Tests used:
# MiaPaCa-2 cells = experiment: MiaPaCa-2 cell proliferation, IncuCyte live-cell imaging (cell confluence); type: cell-based, human; conditions: for IC50: Homo sapiens; for antiproliferative effect compared with corresponding Mito-ATO analog: MiaPaCa-2 cells, controls lacking TPP+ (FIG. 9)
# From the text: FIG. 1. […] (A) Chemical structures of ATO and Mito-ATO analogs. […] Cell proliferation was monitored in real-time with the continuous presence of indicated treatments until the end of each experiment. […] Dashed lines represent the fitting curves used to determine their IC50 values as indicated.
# (§1) The IncuCyte Live-Cell Imaging system (IncuCyte Essen Bioscience Inc., Ann Arbor, MI) was used to monitor cell proliferation.^11-13 As shown in previous publications,^11,12 this imaging system is probe-free and noninvasive, and enables continuous monitoring of cell confluence over several days. The increase in the percentage of cell confluence was used as a surrogate marker of cell proliferation. In a 96-well plate, cells were plated at 1,000 cells per well in triplicates and left to adhere overnight.
# MiaPaCa-2 and A549 cells = experiment: Cellular uptake by LC-MS/MS; type: cell-based, human; conditions: Mito10-ATO 0.1 and 1 μM, ATO 1-10 μM; 1, 2, 4 and 24 h
# Procedure: The compounds were extracted according to the published experimental protocol.^11,12 Briefly, cells were washed twice with ice-cold DPBS (Dulbecco's Phosphate Buffered Saline) and harvested. The cell pellet was immediately frozen in liquid nitrogen and stored at −80° C. For the extraction, the pellet was homogenized in 200 μl DPBS (2 μl were taken for protein assay) and extracted twice with a dichloromethane:methanol (2:1) mixture. The organic layers were combined and dried using a SpeedVac concentrator (Thermo Fisher Scientific, Waltham MA). The dry residue was dissolved in ice-cold methanol and taken for LC-MS/MS analysis. LC-MS/MS analyses were performed using a Kinetex Phenyl-Hexyl column (50 mm×2.1 mm, 1.7 μm; Phenomenex, Torrance, CA) equilibrated with a water:acetonitrile mixture (4:1) containing 0.1% formic acid. Compounds were eluted by increasing the content of acetonitrile from 20% to 100% over 4 min and detected using the MRM (multiple reaction monitoring) mode.
# cyt bc1 [1] = molecular target: cyt bc1 (Homo sapiens, UniProt P00156); conditions: mammalian cells; cited from earlier work
# [2] = tested on: CD4+ T cells from SMARTA triple reporter mice; experiment: In vitro differentiation of CD4+ T regulatory cells, flow cytometry; type: cell-based, mouse; conditions: for Treg (FoxP3+CD25+) differentiation and/or survival: six days culture with TGFβ and IL-2, ATO, butyl-ATO, decyl-ATO up to 60 μM; for Teff cell IFNγ production: six days culture, IFNγ-GFP positive cells within live CD4+ T cells
# From the text: FIG. 5. In vitro differentiation of CD4^+ T regulatory cells under varying concentrations of Mito-ATOs and controls. After six days of culture, cells were stained for flow cytometry analysis. (left) Live/dead staining to assess the percentage of live CD4+ T cells within the lymphocyte gate. (middle) Teff cell function is shown as the frequency of IFNγ-GFP positive cells within the live CD4^+ T cells. (right) The percentage of Treg cells is shown as the frequency of FoxP3^+CD25^+ cells within the live CD4^+ T cells.
# After six days, cells were stained to assess viability, phenotype, and function using the flow cytometry.
# Mice. SMARTA triple reporter mice were generated in the following manner. First, IL-10 and IL-21 double-reporter mice^33 were generated by cross-breeding IL-21tRFP mice^34-35 with 10 BiT mice (kindly provided by Dr. Casey Weaver, University of Alabama at Birmingham). Double reporter mice were then crossed with GREAT (interferon-gamma reporter with endogenous polyA transcript) mice^36 from Jackson Laboratory (Stock No. 017581). These triple-reporter mice were then crossed with SMARTA mice^37 (kindly provided by Dr. Dorian McGavern, National Institutes of Health). Mice were bred and maintained in a closed breeding facility, and mouse handling conformed to the requirements of the Medical College of Wisconsin Institutional Animal Care and Use Committee guidelines. All experimental protocols were approved by the Medical College of Wisconsin Institutional Animal Care and Use Committee.
# Cell culture. To differentiate CD4^+ T cells into a T regulatory cell phenotype, splenocytes from SMARTA triple-reporter mice were processed and the red blood cell lysed using an ACK (ammonium-chloride-potassium) lysis buffer. The cells were then activated with 1 μg/mL […] peptide (GenScript, Piscataway, NJ) and 5 ng/mL TGF-β1 (Shenandoah Biotechnology, Inc., Warwick, PA). […] Cells were cultured for six days and split once cells reached confluency; cells were replenished with IL-2 and compound accordingly. After six days in culture, cells were stained to assess the viability and phenotypic analysis via flow cytometry. LIVE/DEAD fixable violet or aqua dead cell stain (Invitrogen, Carlsbad, CA) was used to assess cell viability. The following antibodies were used for flow cytometry staining: PercP anti-mouse CD4 (clone: GK1.5; BioLegend, San Diego, CA), APC/Cy7 anti-mouse CD25 (clone: PC61; BioLegend), and PE anti-mouse FOXP3 (clone: FJK-16S; eBioscience, San Diego, CA). Flow cytometry data were acquired using a BD LSRII (BD Biosciences, CA) flow cytometer and analysed using FlowJo (Treestar, Inc., Ashland, OR).
# cyt bc1 [3] = conditions: P. falciparum, Y265S mutations (so in the source); cited from earlier work
# [4] = molecular target: T1, mitochondrial complex III (Homo sapiens, UniProt P00156+P47985); experiment: Mitochondrial complex III-driven oxygen consumption rate (Seahorse XF96) in permeabilized MiaPaCa-2 cells; type: cell-based; conditions: 24 h treatment
# T1 construct: endogenous in cells; host or cells: MiaPaCa-2
# Procedure: FIG. 2. Effects of Mito-ATO analogs on the oxygen consumption induced by mitochondrial complexes I and III. […] MiaPaCa-2 cells were treated with Mito-ATO for 24 h. Relative complex I (1.5 mM malate, 10 mM pyruvate, 10 mM ADP)-driven OCR (left) and relative complex III (0.5 mM duroquinol, 10 mM ADP)-driven OCR (right) were monitored by XF-96 analyser. Either Rot (complex I inhibitor) or antimycin A (AA, complex III inhibitor) was acutely added and OCR assayed immediately. […] Dashed lines represent the fitting curves used for determination of the IC50 values. (n.a., not applicable).
# The mitochondrial complex activities were assessed by measuring the oxygen consumption rate (OCR) using the Seahorse technique.^6,11-4 MiaPaCa-2 cells were treated separately with Mito-ATO analogs at different concentrations for 24 h and OCR was measured.
# (§2) Mitochondrial bioenergetic function was measured in real time using the Seahorse XF 96 Extracellular Flux Analyzer (Agilent, North Billerica, MA).^11-13,22 The OCR-based assessment of mitochondrial complex activities was carried out on acutely permeabilized cells in the presence of different mitochondrial substrates, i.e., pyruvate/malate, for complex I and duroquinol for complex III.^11,14,31,32 Rot, malonate, and antimycin A (Sigma-Aldrich, St. Louis, MO) were used as specific inhibitors of mitochondrial complexes I, II, and III, respectively. Briefly, cells that were intact after treatments were immediately permeabilized using the Seahorse XF Plasma Membrane Permeabilizer (Agilent). The mitochondrial complex I-driven OCR was assayed in mannitol and sucrose buffer^31 containing 10 mM pyruvate and 1.5 mM malate (substrates for complex I) and 10 mM malonate (which inhibits complex II activities). The mitochondrial complex III-driven OCR was assayed in mannitol and sucrose buffer containing 0.5 mM duroquinol (substrate for complex III) and 1 μM Rot and 10 mM malonate (which inhibit both complex I and II activities). The mitochondrial complex-dependent oxygen consumption (calculated as Rot- or antimycin A-inhibitable OCR equals basal OCR less OCR after Rot or antimycin A injection) was plotted against concentrations to determine the IC50 values.
# mitochondrial complex I [5] = molecular target: mitochondrial complex I (Homo sapiens, UniProt O75251+O75306+P03886); experiment: Mitochondrial complex I-driven oxygen consumption rate (Seahorse XF96) in permeabilized MiaPaCa-2 cells; type: cell-based; conditions: 24 h treatment
# Procedure: FIG. 2. […] Relative complex I (1.5 mM malate, 10 mM pyruvate, 10 mM ADP)-driven OCR (left) and relative complex III (0.5 mM duroquinol, 10 mM ADP)-driven OCR (right) were monitored by XF-96 analyser. Either Rot (complex I inhibitor) or antimycin A (AA, complex III inhibitor) was acutely added and OCR assayed immediately. […] Dashed lines represent the fitting curves used for determination of the IC50 values.
# Briefly, cells that were intact after treatments were immediately permeabilized using the Seahorse XF Plasma Membrane Permeabilizer (Agilent). The mitochondrial complex I-driven OCR was assayed in mannitol and sucrose buffer^31 containing 10 mM pyruvate and 1.5 mM malate (substrates for complex I) and 10 mM malonate (which inhibits complex II activities). The mitochondrial complex III-driven OCR was assayed in mannitol and sucrose buffer containing 0.5 mM duroquinol (substrate for complex III) and 1 μM Rot and 10 mM malonate (which inhibit both complex I and II activities). The mitochondrial complex-dependent oxygen consumption (calculated as Rot- or antimycin A-inhibitable OCR equals basal OCR less OCR after Rot or antimycin A injection) was plotted against concentrations to determine the IC50 values.
# [6] = tested on: A549 human lung cancer cells; experiment: A549 cell proliferation, IncuCyte; type: cell-based
# From the text: (§3) FIG. 3. […] Cell proliferation was monitored in real-time with the continuous presence of indicated treatments until the end of each experiment. The cell confluence (as control groups reach 98% confluency) is plotted against concentration. Dashed lines represent the fitting curves used to determine the IC50 values as indicated.
# as §1
# mitochondrial complex I [7] = experiment: Complex I-driven OCR in A549, LLC and LKR13 cells; type: cell-based, human, mouse; conditions: A549, LLC, LKR13 cells (FIG. 4)
# Procedure: (§4) FIG. 4. […] Dashed lines represent the fitting curves used for determination of the IC50 values.
# as §2, with “The mitochondrial complex III-driven OCR was assayed in mannitol and sucrose buffer containing 0.5 mM duroquinol (substrate for complex III) and 1 μM Rot and 10 mM malonate (which inhibit both complex I and II activities).” left out
# [8] = tested on: MDA-MB-231 human breast cancer cells; experiment: MDA-MB-231 cell proliferation, IncuCyte; type: cell-based; conditions: MDA-MB-231 cells
# From the text: as §3, §1
# [9] = tested on: LKR13 mouse lung cancer cells; experiment: LKR13 cell proliferation, IncuCyte; type: cell-based
# From the text: as §3, §1
# [10] = tested on: mitochondrial complex III; experiment: Complex III-driven OCR in A549, LLC and LKR13 cells; type: cell-based, human, mouse; conditions: A549, LLC, LKR13 cells (FIG. 4)
# Procedure: as §4
# as §2, with “The mitochondrial complex III-driven OCR was assayed in mannitol and sucrose buffer containing 0.5 mM duroquinol (substrate for complex III) and 1 μM Rot and 10 mM malonate (which inhibit both complex I and II activities).” left out
# [11] = tested on: LLC mouse lung cancer cells; experiment: LLC cell proliferation, IncuCyte; type: cell-based
# From the text: as §3, §1
# mitochondrial complex I (Homo sapiens, UniProt O75251+O75306+P03886), sequence (O75306 34-463): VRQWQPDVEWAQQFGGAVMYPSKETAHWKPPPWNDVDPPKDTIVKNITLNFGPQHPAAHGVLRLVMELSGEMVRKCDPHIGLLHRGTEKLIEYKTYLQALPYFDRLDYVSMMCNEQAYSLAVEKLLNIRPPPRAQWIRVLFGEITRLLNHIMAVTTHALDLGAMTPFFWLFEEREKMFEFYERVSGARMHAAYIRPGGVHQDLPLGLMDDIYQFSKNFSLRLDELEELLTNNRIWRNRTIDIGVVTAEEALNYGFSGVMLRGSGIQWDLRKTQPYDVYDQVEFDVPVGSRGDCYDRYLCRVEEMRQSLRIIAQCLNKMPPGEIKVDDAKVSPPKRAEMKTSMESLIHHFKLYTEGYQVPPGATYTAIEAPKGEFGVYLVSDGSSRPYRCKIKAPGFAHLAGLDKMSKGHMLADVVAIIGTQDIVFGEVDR
# mitochondrial complex I (Homo sapiens, UniProt O75251+O75306+P03886), sequence (O75251 39-213): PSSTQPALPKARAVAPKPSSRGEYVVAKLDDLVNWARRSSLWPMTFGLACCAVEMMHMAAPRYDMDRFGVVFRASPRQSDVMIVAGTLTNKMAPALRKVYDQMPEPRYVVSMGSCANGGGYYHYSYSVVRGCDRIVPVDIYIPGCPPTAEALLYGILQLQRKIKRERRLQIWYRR
# mitochondrial complex I (Homo sapiens, UniProt O75251+O75306+P03886), sequence (P03886 whole entry): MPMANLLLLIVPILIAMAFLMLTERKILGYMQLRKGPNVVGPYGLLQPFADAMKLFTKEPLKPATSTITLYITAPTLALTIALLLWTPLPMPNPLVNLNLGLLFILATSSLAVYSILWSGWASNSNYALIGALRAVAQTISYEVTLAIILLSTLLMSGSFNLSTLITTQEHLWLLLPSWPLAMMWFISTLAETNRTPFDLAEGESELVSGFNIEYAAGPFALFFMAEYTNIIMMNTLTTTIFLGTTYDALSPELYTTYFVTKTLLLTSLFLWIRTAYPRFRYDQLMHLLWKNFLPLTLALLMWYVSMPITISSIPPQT
# cyt bc1 (Homo sapiens, UniProt P00156), sequence (P00156 whole entry): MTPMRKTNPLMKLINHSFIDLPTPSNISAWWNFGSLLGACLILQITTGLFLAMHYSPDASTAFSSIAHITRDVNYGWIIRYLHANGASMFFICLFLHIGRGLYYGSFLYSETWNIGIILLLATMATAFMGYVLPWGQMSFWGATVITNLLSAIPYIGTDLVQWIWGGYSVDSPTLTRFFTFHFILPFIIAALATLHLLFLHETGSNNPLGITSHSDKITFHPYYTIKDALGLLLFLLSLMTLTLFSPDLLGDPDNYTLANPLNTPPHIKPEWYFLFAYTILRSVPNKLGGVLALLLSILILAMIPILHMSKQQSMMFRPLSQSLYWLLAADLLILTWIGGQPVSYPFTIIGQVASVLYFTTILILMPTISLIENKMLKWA
smiles,measurement,setting,value
"O=C1C(O)=C([C@H]2CC[C@H](c3ccc(Cl)cc3)CC2)C(=O)c2ccccc21 [ATO, trans-2-[4-(4-chlorophenyl)cyclohexyl]-3-hydroxy-1,4-naphthalene-dione]",IC50,"MiaPaCa-2 cells; MIA PaCa-2, read-out: IC50, inhibition of cell proliferation (cell confluence)",18000 nM
same,cellular uptake / intracellular accumulation,MiaPaCa-2 and A549 cells,uptake was considerably lower and did not accumulate in cancer cells over a 24 h period
same,IC50 for inhibition of cyt bc1,cyt bc1 [1],micromolar range
same,Treg (FoxP3+CD25+) differentiation and/or survival,[2],did not inhibit Treg differentiation and/or survival
same,increase in IC50 for ATO caused by mutation at Q0 site,cyt bc1 [3],"~9,000 fold"
"CCCCOC1=C([C@H]2CC[C@H](c3ccc(Cl)cc3)CC2)C(=O)c2ccccc2C1=O [Butyl-ATO, reference compound]",antiproliferative effect compared with corresponding Mito-ATO analog,MiaPaCa-2 cells,much less effective than their corresponding Mito-ATO analogs
same,Treg (FoxP3+CD25+) differentiation and/or survival,[2],did not inhibit Treg differentiation and/or survival
"CCCCCCCCCCOC1=C([C@H]2CC[C@H](c3ccc(Cl)cc3)CC2)C(=O)c2ccccc2C1=O [Decyl-ATO, reference compound]",antiproliferative effect compared with corresponding Mito-ATO analog,MiaPaCa-2 cells,much less effective than their corresponding Mito-ATO analogs
same,Treg (FoxP3+CD25+) differentiation and/or survival,[2],did not inhibit Treg differentiation and/or survival
O=C1C(OCCCC[P+](c2ccccc2)(c2ccccc2)c2ccccc2)=C([C@H]2CC[C@H](c3ccc(Cl)cc3)CC2)C(=O)c2ccccc21 [Mito4-ATO],inhibition of complex III-induced oxygen consumption,[4],potently inhibit
same,Treg (FoxP3+CD25+) differentiation and/or survival,[2],inhibited Foxp3^+ Treg differentiation and/or survival
same,Teff cell IFNγ production,[2],promoted Teff cell IFNγ production in a dose-dependent manner
same,inhibition of complex I-induced oxygen consumption,mitochondrial complex I [5],potently inhibit
O=C1C(OCCCCCCCCCC[P+](c2ccccc2)(c2ccccc2)c2ccccc2)=C([C@H]2CC[C@H](c3ccc(Cl)cc3)CC2)C(=O)c2ccccc21 [Mito10-ATO],effect on cell proliferation,[6],effective at halting cell proliferation
same,cellular uptake / intracellular accumulation,MiaPaCa-2 and A549 cells,accumulated inside the cells with time
same,inhibition of complex III-induced oxygen consumption,[4],potently inhibit
same,IC50,"[4]; duroquinol, antimycin A-inhibitable OCR, read-out: IC50 to inhibit oxygen consumption by complex III",780 nM
same,inhibition of complex I-induced oxygen consumption,mitochondrial complex I [7],inhibited both mitochondrial complex I- and III-induced oxygen consumption
same,effect on cell proliferation,[8],effective at halting cell proliferation
same,effect on cell proliferation,[9],effective at halting cell proliferation
same,Treg (FoxP3+CD25+) differentiation and/or survival,[2],inhibited Foxp3^+ Treg differentiation and/or survival
same,Teff cell IFNγ production,[2],promoted Teff cell IFNγ production in a dose-dependent manner
same,inhibition of complex III-induced oxygen consumption,[10],inhibited both mitochondrial complex I- and III-induced oxygen consumption
same,inhibition of complex I-induced oxygen consumption,mitochondrial complex I [5],potently inhibit
same,effect on cell proliferation,[11],effective at halting cell proliferation
O=C1C(OCCCCCCCCCCCC[P+](c2ccccc2)(c2ccccc2)c2ccccc2)=C([C@H]2CC[C@H](c3ccc(Cl)cc3)CC2)C(=O)c2ccccc21 [Mito12-ATO],IC50,"MiaPaCa-2 cells; MIA PaCa-2, MiaPaCa-2 pancreatic cancer cells, continuous treatment, read as control reaches 98% confluency, read-out: IC50, inhibition of cell proliferation (cell confluence)",350 nM
same,inhibition of complex III-induced oxygen consumption,[4],did not inhibit
same,Treg (FoxP3+CD25+) differentiation and/or survival,[2],did not appreciably inhibit Treg differentiation
same,inhibition of complex I-induced oxygen consumption,mitochondrial complex I [5],inhibited only the complex I-induced oxygen consumption
O=C1C(OCCCCCCCCCCCCCCCC[P+](c2ccccc2)(c2ccccc2)c2ccccc2)=C([C@H]2CC[C@H](c3ccc(Cl)cc3)CC2)C(=O)c2ccccc21 [Mito16-ATO],inhibition of complex III-induced oxygen consumption,[4],did not inhibit
same,inhibition of complex I-induced oxygen consumption,mitochondrial complex I [5],inhibited only the complex I-induced oxygen consumption
